Reference: patent publication US20240124466A1, “COMPOUNDS AND USE THEREOF FOR TREATMENT OF NEURODEGENERATIVE, DEGENERATIVE AND METABOLIC DISORDERS” (VOVA IDA THERAPEUTICS, INC., priority 2020, published 2024)
“And” between values parts separate entries of the source, which are not always exact repeats. Equal entries are not always repeated.

These molecules were tested on PK1 neuroblastoma cells exposed to TPrP (assay: cells). Conditions: Neuroblastoma cell, 96 h, read-out: TPrP EC50.
`Cc1ccc(-c2nnc3c4ccccc4c(C)nn23)cc1S(=O)(=O)N1CCOCC1` [SR-843] showed an EC50 of 0.015 µM.
In the case of `Cc1ccc(-c2nnc(-c3ccccc3)[nH]2)cc1S(=O)(=O)N1CCN(CCNC(=O)OC(C)(C)C)CC1` [SR-34024, tert-Butyl (2-(4-((2-methyl-5-(5-phenyl-4H-1,2,4-triazol-3-yl)phenyl)sulfonyl)piperazin-1-yl)ethyl)carbamate], the EC50 is reported as about 1.5 µM.
In the case of `Cc1ccc(-c2ccnc(N3CCOCC3)c2)cc1S(=O)(=O)N1CC(O)C1` [SR-34464, 1-((2-Methyl-5-(2-morpholinopyridin-4-yl)phenyl)sulfonyl)azetidin-3-ol], the EC50 is reported as 0.3 µM.
Molecule `COCCN1CCN(S(=O)(=O)c2cc(-c3nnc(-c4ccccc4)[nH]3)ccc2C)CC1` [SR-34533, 1-(2-Methoxyethyl)-4-((2-methyl-5-(5-phenyl-4H-1,2,4-triazol-3-yl)phenyl)sulfonyl)piperazine] has an EC50 of over 1.5 µM.
Molecule `Cc1cc(C)c(S(=O)(=O)N2CCN(CCO)CC2)cc1-c1nnc(-c2ccccc2)[nH]1` [SR-34778, 2-(4-((2,4-Dimethyl-5-(5-phenyl-4H-1,2,4-triazol-3-yl)phenyl)sulfonyl)piperazin-1-yl)ethan-1-ol] has an EC50 of 0.013 µM.
`Cc1ccc(-c2ccnc(Cl)c2)cc1S(=O)(=O)N1CCN(CCO)CC1` [SR-34793, 2-(4-((5-(2-Chloropyridin-4-yl)-2-methylphenyl)sulfonyl)piperazin-1-yl)ethan-1-ol] was tested, and the EC50 was 0.04 µM.
With `Cc1cc(C)c(S(=O)(=O)N2CCN(CCO)CC2)cc1-c1ccnc(Cl)c1` [SR-34951, 2-(4-((5-(2-Chloropyridin-4-yl)-2,4-dimethylphenyl)sulfonyl)piperazin-1-yl)ethan-1-ol] the EC50 was 0.09 µM.
Molecule `Cc1cc(F)c(-c2ccnc(Cl)c2)cc1S(=O)(=O)N1CCN(CCO)CC1` [SR-35015, 2-(4-((5-(2-Chloropyridin-4-yl)-4-fluoro-2-methylphenyl)sulfonyl)piperazin-1-yl)ethan-1-ol] has an EC50 of 0.05 µM.
Work on `Cc1ccc(-c2ccnc(Cl)c2)cc1S(=O)(=O)N1CCN(CCF)CC1` [SR-35017, 1-((5-(2-Chloropyridin-4-yl)-2-methylphenyl)sulfonyl)-4-(2-fluoroethyl) piperazine] yielded an EC50 of 0.9 µM.
Work on `Cc1ccc(-c2ccnc(Cl)c2)cc1S(=O)(=O)N1CCN(CC(F)F)CC1` [SR-35124, 1-((5-(2-Chloropyridin-4-yl)-2-methylphenyl)sulfonyl)-4-(2,2-difluoroethyl) piperazine] yielded an EC50 of over 1.5 µM.
In the case of `Cc1ccc(-c2ccnc(Cl)c2)cc1S(=O)(=O)N1CCN(CCCO)CC1` [SR-35129, 3-(4-((5-(2-Chloropyridin-4-yl)-2-methylphenyl)sulfonyl)piperazin-1-yl)propan-1-ol], the EC50 is reported as over 1.5 µM.
For `C#CCCC(=O)CCn1cc(-c2ccc(C)c(S(=O)(=O)N3CCN(CCc4ccncc4)CC3)c2)cn1` [SR-35186, 1-(4-(4-Methyl-3-((4-(2-(pyridin-4-yl)ethyl)piperazin-1-yl)sulfonyl)phenyl)-1H-pyrazol-1-yl)hept-6-yn-3-one], the EC50 was under 0.005 µM.
`Cc1ccc(-c2ccnc(Cl)c2)cc1S(=O)(=O)N1CCN(CC(F)(F)F)CC1` [SR-35324, 1-((5-(2-Chloropyridin-4-yl)-2-methylphenyl)sulfonyl)-4-(2,2,2-trifluoroethyl) piperazine] was tested, and the EC50 was over 1.5 µM.
`Cc1ccc(-c2ccnc(Cl)c2)cc1S(=O)(=O)N1CCNCC1` [SR-35422, 1-((5-(2-Chloropyridin-4-yl)-2-methylphenyl)sulfonyl)piperazine] gave an EC50 of under 0.005 µM.
In the case of `Cc1ccc(-c2ccnc(Cl)c2)cc1S(=O)(=O)N1CCN(CC(C)O)CC1` (centres unmarked) [SR-35464, 1-(4-((5-(2-Chloropyridin-4-yl)-2-methylphenyl)sulfonyl)piperazin-1-yl)propan-2-ol], the EC50 is reported as 0.8 µM.
Work on `Cc1ccc(-c2ccnc(Cl)c2)cc1S(=O)(=O)N1CCN(C(=O)c2ccco2)CC1` [SR-35516, (4-((5-(2-Chloropyridin-4-yl)-2-methylphenyl)sulfonyl)piperazin-1-yl)(furan-2-yl)methanone] yielded an EC50 of 0.27 µM.

These molecules were tested on PK1 neuroblastoma cells exposed to TPrP (assay: not given). Conditions: read-out: TPrP EC50.
With `Cc1ccc(-c2nnc3c4ccccc4c(C)nn23)cc1S(=O)(=O)N1CCOCC1` [SR-843] the EC50 was 0.02 µM and 0.025 µM and 0.03 µM.
